Measurements from patent US6086789A, “Medical uses of pyruvates” (Case Western Reserve University, priority 1998, dated 2000).

Tests used:
[1] = tested on: ketoacidotic diabetic rats; test: Treatment of ketoacidotic diabetic BB rats; type: in vivo
Method: Prediabetic male BB rats were purchased from the University of Massachussetts Breeding Center. They were treated with insulin (PZI 40 U/mL, Anpro Pharmaceutical), mean of 2.1 U for rats weighing between 250-300 g) as soon as they became hyperglycemic. They were used after at least three weeks of clinical stability and steady weight growth. Under general anesthesia, permanent catheters were inserted in a carotid artery and the controlateral external jugular vein. Then, the rats were deprived of insulin for two days. […] The rats were then treated with one of four protocols: […]

[2] = Therapeutic pyruvate concentration in vivo, infusion of rats; parameters: species or system rat
Method: Therapeutic pyruvate concentration in vivo with DPAG
After preparing pure DPAG, experiments were performed to test whether it could be used to impose a therapeutic concentration of 1 mM pyruvate in arterial blood. Overnight-fasted rats, anesthetized with halothane, were infused in the jugular vein with DPAG at 90 μmol·min^-1 ·kg^-1 for 90 min. This rate corresponds to about 120% of the rats' caloric requirement. Five blood samples (70 μl) were taken from the carotid artery between 60 and 90 min. The arterial concentrations of pyruvate, lactate, and glycerol were clamped at 1.0, 2.5, and 0.8 mM, respectively. Corresponding portal vein concentrations at 90 min were 0.6, 2.5, and 1.0 mM, respectively. FIGS. 8 and 9 show blood concentrations of metabolites in rats infused with DPAG (panel A) and in control rats infused with saline (panel B). Control rats show normal arterial concentrations of pyruvate (0.05 mM) and lactate (0.3 to 0.6 mM; normal values for lactate are up to 1.5 mM). In rats infused with DPAG, the arterial concentrations of pyruvate and lactate were clamped at 1.0, and 2.5 mM, respectively. Corresponding portal vein concentrations at 90 min were 0.6 and 2.5 mM, respectively. Arterial glucose remained at 5-6 mM. […] Thus, DPAG can be safely used to set up the 1 mM target concentration of pyruvate expected to be beneficial for the treatment of reperfusion injury. […] Third, during peripheral administration of DPAG at 90 μmol·min^-1 ·kg^-1, portal pyruvate concentration was about 2/3 that which yielded a 3 to 6-fold increase in ethanol uptake by perfused rat livers. A portal pyruvate concentration of 1 mM could be achieved (i) by increasing the peripheral infusion of DPAG to 120 μmol·min^-1 ·kg^-1, or (ii) by administering DPAG enterally to better target portal vein concentrations.

myocardial infarct = test: Decrease in myocardial infarct size in swine (LAD occlusion/reperfusion); type: in vivo
Method: Decrease in myocardial infarct size in swine by DPAG.
The animals were anesthetized, instrumented, and subjected to 60 minutes of total occlusion of the distal 2/3 of the left anterior descending coronary artery, followed by 120 min of reperfusion. The area of the infarct was stained with tetrazolium, and infarct size quantitated on 5 mm slices of tissue. Treatment with DPAG was started with the onset of reperfusion (8.0 mg/kgmin for 120 min).

perfused rat livers [3] = test: Effect of DPAG on ethanol uptake by perfused rat livers; details: DPAG raised from zero to 0.5 mM, 2 mM ethanol, read-out: increase of ethanol uptake by the liver
Method: The effect of DPAG on the rate of ethanol uptake by perfused rat livers was also tested. Livers were perfused with non-recirculating buffer containing 4 mM glucose, 2 mM ethanol and variable concentrations of DPAG (0 to 1.5 mM). […] Note that 0.5 mM DPAG corresponds to 1 mM pyruvate after hydrolysis. Thus, to accelerate ethanol oxidation in vivo, the rate of DPAG administration should be adjusted to achieve a 1 mM concentration of free pyruvate in the portal vein. When DPAG was infused to live rats at 90 μmol·min^-1·kg^-1, the portal vein concentration of pyruvate was 0.6 mM. A portal pyruvate concentration of 1 mM could be achieved in vivo (i) by increasing the peripheral infusion of DPAG to 120 μmol·min·^-1 ·kg^-1, or (ii) by administering DPAG enterally to better target portal vein concentrations.

isolated rabbit hearts [4] = test: Recovery of isolated rabbit hearts following 25 min of warm ischemia; parameters: species or system New Zealand rabbits; details: 20 μM PNACE
Method: In the working mode, which simulates physiological conditions, hearts pump the buffer against a 85 cm hydrostatic pressure in the aorta. The mechanical performance of the hearts was assessed by monitoring heart rate, cardiac output, coronary flow, left ventricular pressure, and dP/dtmax. The latter parameter reflects the capacity of the heart to increase hydrostatic pressure in the left ventricle. Following 30 minutes of equilibration, the hearts were made ischemic for 25 minutes by clamping the aortic and left atrial canulas. Then, the clamps were removed to allow reperfusion with oxygenated KRB buffer containing either no additive (n=7, control group), or 20 μM pyruvate-N-acetyl-cysteine ethyl ester ([…]=7). PNACE was infused via a syringe pump into the inflowing perfusate. In the syringe, PNACE was dissolved in 0.1 mM HCl to prevent hydrolysis of the thioester.

preserved rat livers = test: Metabolic integrity of preserved rat livers upon reperfusion
Method: Improved function of preserved rat livers
The first group of livers (n=7, control group) was not preserved, but was perfused at 37° C. for 45 minutes. The second group of livers (n=8, preserved group) was flushed with ice-cold University of Wisconsin (UW) preservation solution and stored for 24 hours in ice-cold UW solution. Next, the livers were reperfused at 37° C. with non-recirculating KRB buffer containing 5 mM glucose. The third group of livers (n=8, preserved+PNACE group) was treated as the second group except that 20 μM PNACE was added to the UW preservation solution and to the reperfusion KRB buffer. During the last 45 min of (re)perfusion, the function of the three groups of livers was assessed by (i) the release of three cellular enzymes, i.e. lactate dehydrogenase, aspartate aminotransferase, and alanine aminotransferase, (ii) oxygen consumption, and (iii) the production of ketone bodies, ie β-hydroxybutyrate+acetoacetate, after addition of 1 mM octanoate to the perfusate.
Effect of PNACE on metabolic integrity of preserved rat livers upon reperfusion

[5] = Stability of PNACE in solution; type: physicochemical
Description: However, the present inventive compound has proven to be readily manufacturable and very effective in the prevention of organ damage associated with reperfusion injury. The compound has been prepared in pure form and in gram amounts. Its formula has been confirmed by elemental analysis and gas chromatography-mass spectrometry. The compound is stable in slightly acidic solutions (pH 4-5). […] The compound has also been synthesized labeled with three deuterium ^2 H atoms on the N-acetyl moiety. This deuterated compound is used as an internal standard for the assay of the compound by isotope dilution gas chromatography-mass spectrometry.

reperfused rat hearts = details: cited from earlier work
isolated rabbit hearts [6] = test: Recovery of isolated rabbit hearts following massive catecholamine injury; details: 50 μM isoproterenol, after 10 minutes
Method: Recovery of isolated rabbit hearts following massive catecholamine injury
Rabbit hearts were perfused in the working mode as in the above example. However, after the 30 minutes of equilibration, 50 μM isoproterenol was added to the inflowing perfusate for 10 min. Isoproterenol is a catecholamine, which, at the dose administered, induces a marked increase in heart rate and cardiac output. After 10 minutes, the mechanical performance of the hearts decreased markedly to the point where cardiac output was almost zero. Then, isoproterenol infusion was stopped, and perfusion was continued for 30 minutes with oxygenated KRB buffer containing either no additive (n=7, control group), or 20 μM PNACE (n=7).

perfused rat livers [7] = test: Acceleration of ethanol oxidation by components of pyruvate esters in perfused rat livers; details: perfused liver
Method: Acceleration of ethanol oxidation
Rat livers were infused with ethanol and the components of the esters of glycerol-and-DHA pyruvate to represent the conditions that will occur after ester hydrolysis. […] After 10 min baseline, the influent perfusate was enriched with various equimolar concentrations of the components of the esters, ie DHA+Na-pyruvate, or glycerol+Na-pyruvate (up to 2.2 mM). These conditions simulated infusion and hydrolysis of glycerol- or DHA-monopyruvate. The uptakes of ethanol, pyruvate, DHA and glycerol, as well as the productions of lactate and glucose were measured.

ethanol oxidation = details: intragastric gavage, dogs; cited from earlier work
[8] = Group III preserved + PNACE (20 μM), 25-30 min.
[9] = preserved reperfused rat livers, 20 μM PNACE

In the case of `CC(=O)OCC(COC(=O)C(C)=O)OC(=O)C(C)=O` (stereo not shown) [DPAG, dipyruvyl-acetyl-glycerol], the “decrease of total KB concentration” value ([1]; DPAG 90 μmol.min^-1 kg^-1 in saline infusion, in 2 hr) is reported as 90%, the “tolerability of massive doses” value ([1]; compromised BB rats in diabetic ketoacidosis) is reported as “well tolerated” and the Arterial glucose ([2]; DPAG 90 μmol.min^-1.kg^-1) is reported as 5 to 6 mM. The “portal vein concentration of lactate” value ([2]; DPAG 90 μmol.min^-1.kg^-1, at 90 min) was 2.5 mM, the “acid-base and electrolyte parameters of aortic blood” value ([2]; DPAG 90 μmol.min^-1.kg^-1, final samples) was “normal acid-base and electrolyte parameters” and the “arterial concentration of lactate” value ([2]; DPAG 90 μmol.min^-1.kg^-1 jugular vein, 60-90 min) was 2.5 mM. The “sodium overload and/or acid-base perturbations” value ([2]; DPAG at 1 mM arterial pyruvate) was “without sodium overload and/or acid-base perturbations”, the “increases in glucose and lactate concentrations” value ([2]; DPAG at 120% of the caloric requirement) was “lack of major increases in glucose and lactate concentrations” and the “infarct size, percent of the area at risk for infarction” value (myocardial infarct; DPAG 8.0 mg/kgmin for 120 min from onset of reperfusion, n=6, p<0.0005 vs control 40.0±3.6%) was 9.1±3.8%. For the same molecule, the “effect on heart rate or ventricular pressure” value (myocardial infarct; DPAG infusion) was “did not affect heart rate or ventricular pressure” and the fold induction at 500 µM (perfused rat livers [3]) was 2.5.

In the case of `CCOC(=O)[C@H](CSC(=O)C(C)=O)NC(C)=O` [PNACE, Pyruvate-N-acetyl-L-cysteine ethyl ester], the “duration of functional recovery” value (isolated rabbit hearts [4]) is reported as “lasted throughout the 30 minute reperfusion experiment”, the “Release of lactate dehydrogenase” value (preserved rat livers; Group III preserved + PNACE (20 μM), 10-14 min.) is reported as 4.5 U/L.g and the Oxygen consumption (preserved rat livers; [8]) is reported as 2.4 µmol/min/g. For the same molecule, the “Release of alanine aminotransferase” value (preserved rat livers; [8]) was 0.33 U/L.g, the “Release of aspartate amino-transferase” value (preserved rat livers; [8]) was 0.73 U/L.g and the Ketone body production (preserved rat livers; Group III preserved + PNACE (20 μM), 25-30 min., 1 mM octanoate) was 1.4 µmol/min/g. The “capacity of the liver to oxidize fatty acids to ketone bodies” value (preserved rat livers; [9]) was “restores partially the capacity of the liver to oxidize fatty acids to ketone bodies”, the “initial release of tissue enzymes” value (preserved rat livers; [9]) was “markedly decreases the initial release of tissue enzymes” and the “oxygen consumption (in words)” value (preserved rat livers; [9]) was “restores oxygen consumption to the level of non-preserved livers”. The “stability in slightly acidic solutions” value ([5]; pH 4-5) was “stable”, the “hydrolysis to pyruvate and N-acetylcysteine ethyl ester” value ([5]; pH 7.4) was “slowly hydrolyzed” and the “infarct size, percent of the area at risk for infarction” value (myocardial infarct; PNACE group (n=4)) was “about 16±4%”.

In the case of `CC(=O)N[C@@H](CS)C(=O)O` [acetylcysteine], the “production of ROS” value (reperfused rat hearts) is listed as “decreases the production of ROS”.

In the case of `CC(C)NCC(O)c1ccc(O)c(O)c1` (stereo not shown) [isoproterenol], the “cardiac output after isoproterenol” value (isolated rabbit hearts [6]) is reported as “almost zero”.

With insulin the “decrease of total KB concentration” value ([1]; 0.75 U insulin intravenously + saline, 2 hr) was 30%.

For `CC(=O)C(=O)O` [pyruvate], the “increase in ethanol uptake by perfused rat livers” value (perfused rat livers [7]) was 3-6 fold.

In the case of `O=C(O)O` [NH4 HCO3], the “rate of ethanol oxidation” value (ethanol oxidation) is given as “increases the rate of ethanol oxidation”.
